The target in experiment [1] is T1, BACE1 (Homo sapiens (Human), UniProt P56817). Put plainly: In vitro enzymatic BACE1 FRET assay. The following applies: read-out: BACE1 Enzyme IC50. The format is biochemical.
Target sequence in this assay (P56817 46-501): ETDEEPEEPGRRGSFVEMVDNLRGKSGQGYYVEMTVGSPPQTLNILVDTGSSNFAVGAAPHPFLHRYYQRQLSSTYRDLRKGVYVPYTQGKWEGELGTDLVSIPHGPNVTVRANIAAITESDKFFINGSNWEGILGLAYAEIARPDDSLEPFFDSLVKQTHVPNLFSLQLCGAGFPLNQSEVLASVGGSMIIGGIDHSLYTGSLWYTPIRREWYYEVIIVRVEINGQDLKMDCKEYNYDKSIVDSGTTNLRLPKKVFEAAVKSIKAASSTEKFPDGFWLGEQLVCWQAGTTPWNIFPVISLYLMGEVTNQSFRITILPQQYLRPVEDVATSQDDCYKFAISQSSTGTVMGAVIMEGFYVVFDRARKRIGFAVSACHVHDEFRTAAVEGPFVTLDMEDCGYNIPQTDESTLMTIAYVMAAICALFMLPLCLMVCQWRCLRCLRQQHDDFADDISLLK
The target of experiment [2] is T1, BACE1. Put plainly: In vitro BACE1 cell-based assay (Aβ40 in conditioned medium of cells stably expressing APP, HTRF). The following applies: Aβ40 in conditioned media after 24 h incubation.
Target sequence in this assay (P56817 46-501, species assumed): as the sequence (P56817 46-501) above
The target of another experiment is human recombinant BACE2 (Homo sapiens (Human), UniProt Q9Y5Z0). Put plainly: In vitro enzymatic BACE2 FRET assay. Type of experiment: biochemical. The following applies: read-out: BACE2 Enzyme IC50.
Another experiment has as its target Cathepsin D (CatD) (Homo sapiens (Human), UniProt P07339). Put plainly: In vitro enzymatic Cathepsin D (CatD) FRET assay. The format is biochemical. The following applies: read-out: Cat D Enzyme IC50.

Chain of human recombinant BACE2 (Q9Y5Z0 63-518): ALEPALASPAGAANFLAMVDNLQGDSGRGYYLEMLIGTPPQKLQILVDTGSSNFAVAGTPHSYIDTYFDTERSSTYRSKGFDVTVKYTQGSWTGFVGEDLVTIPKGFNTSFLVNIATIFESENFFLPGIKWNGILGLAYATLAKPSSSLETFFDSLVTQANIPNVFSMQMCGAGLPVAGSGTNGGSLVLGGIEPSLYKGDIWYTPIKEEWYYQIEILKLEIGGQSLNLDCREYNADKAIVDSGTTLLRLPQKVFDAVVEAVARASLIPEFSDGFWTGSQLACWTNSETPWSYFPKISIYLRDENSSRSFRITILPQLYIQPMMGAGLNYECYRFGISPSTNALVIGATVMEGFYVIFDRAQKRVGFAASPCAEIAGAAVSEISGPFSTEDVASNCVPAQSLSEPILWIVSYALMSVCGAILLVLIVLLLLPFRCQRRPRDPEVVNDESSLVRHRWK
Chain of Cathepsin D (CatD) (P07339 65-412, species assumed): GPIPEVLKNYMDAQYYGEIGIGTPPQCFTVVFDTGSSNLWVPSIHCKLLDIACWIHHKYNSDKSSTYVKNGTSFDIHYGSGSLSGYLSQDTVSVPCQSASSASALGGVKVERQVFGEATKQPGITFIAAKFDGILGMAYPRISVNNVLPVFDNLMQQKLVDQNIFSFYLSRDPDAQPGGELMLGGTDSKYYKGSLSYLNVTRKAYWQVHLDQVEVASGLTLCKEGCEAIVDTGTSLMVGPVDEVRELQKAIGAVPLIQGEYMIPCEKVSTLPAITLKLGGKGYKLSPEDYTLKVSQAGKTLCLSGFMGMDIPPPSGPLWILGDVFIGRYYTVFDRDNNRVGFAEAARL

One may read the IC50 as the concentration needed to halve the response being measured. Take `CN1C(N)=N[C@](C)(c2cc(/C=C(\F)c3cnc(C#N)cn3)ccc2F)C2(CC2)S1(=O)=O` [Example 147, (R,Z)-5-(2-(3-(6-amino-5,8-dimethyl-4,4-dioxido-4-thia-5,7-diazaspiro[2.5]oct-6-en-8-yl)-4-fluorophenyl)-1-fluorovinyl)pyrazine-2-carbonitrile]: the IC50 on BACE1 [1] stood at 6 nM; at BACE1 [2] it was 15 nM; on human recombinant BACE2, 184 nM; on Cathepsin D (CatD), 41100 nM.

As to `CN1C(N)=N[C@](C)(c2cc(/C=C(\F)c3cnc(OCC(F)(F)C(F)F)cn3)ccc2F)CS1(=O)=O` [Example 148, (R,Z)-3-amino-5-(2-fluoro-5-(2-fluoro-2-(5-(2,2,3,3-tetrafluoropropoxy)pyrazin-2-yl)vinyl)phenyl)-2,5-dimethyl-5,6-dihydro-2H-1,2,4-thiadiazine 1,1-dioxide], the IC50 came to 18 nM on BACE1 [1], 88 nM on BACE1 [2], 217 nM at human recombinant BACE2 and 25300 nM on Cathepsin D (CatD).

Turning to `C#CCOc1cnc(/C(F)=C/c2ccc(F)c([C@]3(C)CS(=O)(=O)C4(CCC4)C(N)=N3)c2)cn1` [Example 149, (R,Z)-9-amino-7-(2-fluoro-5-(2-fluoro-2-(5-(prop-2-yn-1-yloxy)pyrazin-2-yl)vinyl)phenyl)-7-methyl-5-thia-8-azaspiro[3.5]non-8-ene 5,5-dioxide], the 50% inhibitory concentration (IC50) came out at 2 nM at BACE1 [1], 3 nM at BACE1 [2], 51 nM on human recombinant BACE2 and 110000 nM at Cathepsin D (CatD).

For `CC1(C)C(N)=N[C@](C)(c2cc(/C=C(\F)c3cnc(OCC4CCCCC4)cn3)ccc2F)CS1(=O)=O` [Example 150, (R,Z)-5-amino-3-(5-(2-(5-(cyclohexylmethoxy)pyrazin-2-yl)-2-fluorovinyl)-2-fluorophenyl)-3,6,6-trimethyl-3,6-dihydro-2H-1,4-thiazine 1,1-dioxide], the 50% inhibitory concentration (IC50) on BACE1 [1] worked out at 46 nM; against BACE1 [2] it was 1620 nM; at human recombinant BACE2, 155 nM; at Cathepsin D (CatD) it was 13800 nM.

For `CN1C(N)=N[C@](C)(c2cc(/C=C(/F)c3ccc(Cl)cn3)cc(F)c2F)CS1(=O)=O` [Example 151, (R,E)-3-amino-5-(5-(2-(5-chloropyridin-2-yl)-2-fluorovinyl)-2,3-difluorophenyl)-2,5-dimethyl-5,6-dihydro-2H-1,2,4-thiadiazine 1,1-dioxide], the IC50 amounted to 240 nM on BACE1 [1], 1420 nM against BACE1 [2], 121 nM at human recombinant BACE2 and 40900 nM at Cathepsin D (CatD).

Turning to `CN1C(N)=N[C@](C)(c2cc(/C=C(\F)c3ccc(Cl)cn3)cc(F)c2F)CS1(=O)=O` [Example 152, (R,Z)-3-amino-5-(5-(2-(5-chloropyridin-2-yl)-2-fluorovinyl)-2,3-difluorophenyl)-2,5-dimethyl-5,6-dihydro-2H-1,2,4-thiadiazine 1,1-dioxide], the IC50 at BACE1 [1] is 15 nM; at BACE1 [2], 47 nM; at human recombinant BACE2, 6 nM; at Cathepsin D (CatD), 48800 nM.

In the case of `CC(C)(C#N)COc1cnc(/C(F)=C/c2ccc(F)c([C@]3(C)CS(=O)(=O)C(C)(C)C(N)=N3)c2)cn1` [Example 153, (R,Z)-3-((5-(2-(3-(5-amino-3,6,6-trimethyl-1,1-dioxido-3,6-dihydro-2H-1,4-thiazin-3-yl)-4-fluorophenyl)-1-fluorovinyl)pyrazin-2-yl)oxy)-2,2-dimethylpropanenitrile], the IC50 on BACE1 [1] was 636 nM; at BACE1 [2], 2180 nM; at human recombinant BACE2 it was 1060 nM; on Cathepsin D (CatD), 249000 nM.

As to `CC#CCOc1cnc(/C(F)=C/c2ccc(F)c([C@]3(C)CS(=O)(=O)C(C)(C)C(N)=N3)c2)cn1` [Example 154, (R,Z)-5-amino-3-(5-(2-(5-(but-2-yn-1-yloxy)pyrazin-2-yl)-2-fluorovinyl)-2-fluorophenyl)-3,6,6-trimethyl-3,6-dihydro-2H-1,4-thiazine 1,1-dioxide], the IC50 on BACE1 [1] amounted to 1 nM; against BACE1 [2], 2 nM; at human recombinant BACE2, 34 nM; at Cathepsin D (CatD), 109000 nM.

Consider `CC1(C)C(N)=N[C@](C)(c2cc(/C=C(\F)c3cnc(OCCn4ccnc4)cn3)ccc2F)CS1(=O)=O` [Example 155, (R,Z)-3-(5-(2-(5-(2-(1H-imidazol-1-yl)ethoxy)pyrazin-2-yl)-2-fluorovinyl)-2-fluorophenyl)-5-amino-3,6,6-trimethyl-3,6-dihydro-2H-1,4-thiazine 1,1-dioxide], for which the IC50 at BACE1 [1] came out at 5140 nM; at BACE1 [2], 985 nM; on human recombinant BACE2, 2390 nM; at Cathepsin D (CatD), 440000 nM.

On to `CC1(C)C(N)=N[C@](C)(c2cc(/C=C(\F)c3cnc(OCCn4cc(Br)cn4)cn3)ccc2F)CS1(=O)=O` [Example 156, (R,Z)-5-amino-3-(5-(2-(5-(2-(4-bromo-1H-pyrazol-1-yl)ethoxy)pyrazin-2-yl)-2-fluorovinyl)-2-fluorophenyl)-3,6,6-trimethyl-3,6-dihydro-2H-1,4-thiazine 1,1-dioxide], for which the IC50 at BACE1 [1] was 96 nM; at BACE1 [2], 1320 nM; on human recombinant BACE2, 671 nM; at Cathepsin D (CatD) it was 90500 nM.

Take `CC1(C)C(N)=N[C@](C)(c2cc(/C=C(\F)c3cnc(OCCn4cccn4)cn3)ccc2F)CS1(=O)=O` [Example 157, (R,Z)-3-(5-(2-(5-(2-(1H-pyrazol-1-yl)ethoxy)pyrazin-2-yl)-2-fluorovinyl)-2-fluorophenyl)-5-amino-3,6,6-trimethyl-3,6-dihydro-2H-1,4-thiazine 1,1-dioxide]: the IC50 stood at 187 nM on BACE1 [1], 181 nM at BACE1 [2], 478 nM at human recombinant BACE2 and 57500 nM at Cathepsin D (CatD).

Take `Cc1noc(COc2cnc(/C(F)=C/c3ccc(F)c([C@@]4(C)N=C(N)N(C)S(=O)(=O)C45CC5)c3)cn2)n1` [Example 161, (8R)-8-(2-fluoro-5-((Z)-2-fluoro-2-(5-((3-methyl-1,2,4-oxadiazol-5-yl)methoxy)-2-pyrazinyl)ethenyl)phenyl)-5,8-dimethyl-4-thia-5,7-diazaspiro[2.5]oct-6-en-6-amine 4,4-dioxide]: the IC50 was found to be 80 nM at BACE1 [1], 48 nM at BACE1 [2], 2630 nM at human recombinant BACE2 and 59600 nM at Cathepsin D (CatD).

Consider `Cc1cc(COc2cnc(/C(F)=C/c3ccc(F)c([C@@]4(C)N=C(N)N(C)S(=O)(=O)C45CC5)c3)cn2)no1` [Example 162, (8R)-8-(2-fluoro-5-((Z)-2-fluoro-2-(5-((5-methyl-3-isoxazolyl)methoxy)-2-pyrazinyl)ethenyl)phenyl)-5,8-dimethyl-4-thia-5,7-diazaspiro[2.5]oct-6-en-6-amine 4,4-dioxide], for which the IC50 on BACE1 [1] came out at 65 nM; at BACE1 [2] it was 168 nM; on human recombinant BACE2, 732 nM; on Cathepsin D (CatD) it was 15700 nM.

For `CN1C(N)=N[C@](C)(c2cc(/C=C(\F)c3cnc(OCC(F)(F)F)cn3)ccc2F)C2(CC2)S1(=O)=O` [Example 163, (8R)-8-(2-fluoro-5-((Z)-2-fluoro-2-(5-(2,2,2-trifluoroethoxy)-2-pyrazinyl)ethenyl)phenyl)-5,8-dimethyl-4-thia-5,7-diazaspiro[2.5]oct-6-en-6-amine 4,4-dioxide], the IC50 came out at 133 nM on BACE1 [1], 1120 nM against BACE1 [2], 2880 nM at human recombinant BACE2 and 223000 nM on Cathepsin D (CatD).

For `COC[C@H](C)Oc1cnc(/C(F)=C/c2ccc(F)c([C@]3(C)CS(=O)(=O)N(C)C(N)=N3)c2)cn1` [Example 164, (R)-3-amino-5-(2-fluoro-5-((Z)-2-fluoro-2-(5-(((S)-1-methoxypropan-2-yl)oxy)pyrazin-2-yl)vinyl)phenyl)-2,5-dimethyl-5,6-dihydro-2H-1,2,4-thiadiazine 1,1-dioxide], the IC50 stood at 11 nM on BACE1 [1], 11 nM against BACE1 [2], 108 nM at human recombinant BACE2 and 107000 nM at Cathepsin D (CatD).

With `Cc1cnc(COc2cnc(/C(F)=C/c3ccc(F)c([C@@]4(C)N=C(N)N(C)S(=O)(=O)C45CC5)c3)cn2)o1` [Example 169, (8R)-8-(2-fluoro-5-((Z)-2-fluoro-2-(5-((5-methyl-1,3-oxazol-2-yl)methoxy)-2-pyrazinyl)ethenyl)phenyl)-5,8-dimethyl-4-thia-5,7-diazaspiro[2.5]oct-6-en-6-amine 4,4-dioxide], the IC50 stood at 66 nM at BACE1 [1], 124 nM on BACE1 [2], 907 nM at human recombinant BACE2 and 698000 nM on Cathepsin D (CatD).

Take `CC1(C)C(N)=N[C@](C)(c2cc(/C=C(\F)c3cnc(C#N)cn3)ccc2F)CS1(=O)=O` [Example 170, (R,Z)-5-(2-(3-(5-amino-3,6,6-trimethyl-1,1-dioxido-3,6-dihydro-2H-1,4-thiazin-3-yl)-4-fluorophenyl)-1-fluorovinyl)pyrazine-2-carbonitrile]: the IC50 is 2 nM at BACE1 [1], 5 nM against BACE1 [2], 17 nM at human recombinant BACE2 and 645000 nM at Cathepsin D (CatD).

In the case of `C#C[C@H](C)Oc1cnc(/C(F)=C/c2ccc(F)c([C@]3(C)CS(=O)(=O)N(C)C(N)=N3)c2)cn1` [Example 171, (R)-3-amino-5-(5-((Z)-2-(5-((S)-but-3-yn-2-yloxy)pyrazin-2-yl)-2-fluorovinyl)-2-fluorophenyl)-2,5-dimethyl-5,6-dihydro-2H-1,2,4-thiadiazine 1,1-dioxide], the IC50 on BACE1 [1] stood at 5 nM; against BACE1 [2], 6 nM; on human recombinant BACE2, 142 nM; at Cathepsin D (CatD), 17000 nM.

Turning to `COC(C)COc1cnc(/C(F)=C/c2ccc(F)c([C@]3(C)CS(=O)(=O)N(C)C(N)=N3)c2)cn1` (stereo partly drawn) [Example 172, (R)-3-amino-5-(2-fluoro-5-((Z)-2-fluoro-2-(5-(2-methoxypropoxy)pyrazin-2-yl)vinyl)phenyl)-2,5-dimethyl-5,6-dihydro-2H-1,2,4-thiadiazine 1,1-dioxide], the IC50 on BACE1 [1] is 25 nM; on BACE1 [2], 23 nM; on human recombinant BACE2, 84 nM; on Cathepsin D (CatD), 67600 nM.

The values above are taken from patent US11021493B2, “1,4-thiazine dioxide and 1,2,4-thiadiazine dioxide derivatives as beta-secretase inhibitors and methods of use” (AMGEN INC., priority 2016, dated 2021).
